Laboratory results from PMC3164524 (Biochemistry, 2011).
Square brackets hold non-standard residues; d marks the D form. Peptide text beside a SMILES is read from it. pY = N[C@@H](Cc1ccc(OP(=O)(O)O)cc1)C(=O)O

Target: T1, SHP-2 N-SH2 domain (Homo sapiens, UniProt Q06124)
T1 sequence (Q06124 1-106): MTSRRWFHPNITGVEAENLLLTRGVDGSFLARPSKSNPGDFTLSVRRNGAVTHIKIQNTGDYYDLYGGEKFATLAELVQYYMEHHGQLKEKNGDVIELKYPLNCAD
Experiment: SPR competition assay against immobilized pYAQL peptide
Assay type: binding

An IC50 of 600 ± 100 nM was found for CC(C)C[C@H](NC(=O)[C@H](CCC(N)=O)NC(=O)[C@H](C)NC(=O)[C@H](Cc1ccc(OP(=O)(O)O)cc1)NC(=O)[C@H](CC(N)=O)NC(=O)[C@H](CC(C)C)NC(=O)[C@@H](N)CCCNC(=N)N)C(=O)N[C@@H](Cc1c[nH]c2ccccc12)C(=O)N[C@@H](Cc1c[nH]cn1)C(=O)N[C@@H](CCCNC(=N)N)C(N)=O [pYAQL] (H-RLN[pY]AQLWHR-NH2) in this work.
